Patent US9402821B2, “Methods and pharmaceutical compositions for treatment of cystic fibrosis” (INSERM (Institut National de la sante et de la Recherche …, priority 2012, dated 2016)

Test system: NF-κB transcriptional activity
Assay: NF-κB firefly luciferase reporter assay, TNFα-stimulated cells
Assay type: cell-based
Conditions: TNFα 10 ng/ml; BEAS-2B and HeLa cells with wt or deltaF508-CFTR (FIGS. 1A, B)
Description: All cells were transiently transfected by NF-κB firefly luciferase reporter and renilla luciferase reference. A. HeLa control cells (Ctr) were pre-treated with diluent (0.5%) or different doses of sulindac for 1 h and stimulated for 1 h with 10 ng/ml TNFα. After removal of TNFα, cells were incubated for 4 h with sulindac. Luciferase activity was analysed in protein extract. The NF-κB transcriptional activity in cells treated with sulindac+TNFα was expressed in percent of diluent+TNFα. B. Hela cells Wt, DF508 and Ctr were pre-treated with diluent (0.5%), ibuprofen (500 μM) or sulindac (500 μM) for 1 h and stimulated for 1 h with […] TNFα. After removal of TNFα, cells were incubated for 4 h with pharmacological treatment. The NF-κB transcriptional activity in cells treated with ibuprofen+TNFα and sulindac+TNFα was expressed in percent of diluent+TNFα. Results of at least three independent experiments, means±SEM. Unilateral paired t test: * p<0.02
All cells were pre-treated with diluent (0.5%), sulindac ([…]) or sulindac sulfone (250 μM) for 1 h and stimulated for 1 h with 10 ng/ml TNFα. […]
Plasmid Constructs and Transient Transfection To assay the transcriptional activity of NF-κB, pNF-κBLuc, a luciferase reporter plasmid containing five sequential NF-κB binding sites upstream of a minimum promoter element, NF-κB-Luc (Stratagene), was used. Transcriptional activity of the IL-8 promoter was evaluated with reporter constructs consisting of the IL-8 promoter (−133 bp from the transcription start site) fused to the Luciferase gene, kindly provided by Naofumi Mukaida. […]
Cells were lysed with the Passive Lysis Buffer (Promega), and luciferase activity in the cellular extracts was determined by the Dual Luciferase Assay System (Promega) using a luminometer (Tristar; Berthold). The results were normalized to those obtained with the Renilla luciferase reference plasmid used to control the transfection efficiency, and the values were expressed as luminescence intensity (Luciferase/Renilla). […]
The transcriptional activity of NF-κB and IL-8 promoter was measured as described before. […]

Structure (SMILES): CC1=C(CC(=O)O)c2cc(F)ccc2/C1=C\c1ccc([S+](C)[O-])cc1 (stereo not shown) [sulindac, (Z)-5-fluoro-2-methyl-1-[p-(methylsulfinyl)benzylidene]-indene-3-acetic acid]
- transcriptional activity of NF-κB: inhibits transcriptional activity of NF-κB
